The values below come from patent US11001587B2, “Substituted indazoles as phosphatidylinositol kinase inhibitors” (CUROVIR AB, priority 2017, dated 2021).

Molecules are shown by their SMILES. Read-outs that look alike come from different tables or passages of the source.

A short description of one series: in vivo. The conditions noted are these: Sprague Dawley, rat, po. On the set-up: species or system Sprague Dawley rats. Here is the method:
Based on previous toxicity tests with analogs and pharmacokinetic data, repeated dose toxicity and toxicokinetic studies were conducted to generate information on the toxic characteristics of some representative compounds of the invention, viz. Example 8 and Example 12, respectively, when administered orally by gavage to Sprague Dawley rats for a period of 7 consecutive days. The study plan for the studies was by current ICH guidelines for 7 days toxicity studies and the No Observed Adverse Effect Level (NOAEL) of Example 8 and Example 12 was determined as 60 mg/kg body weight/day and 50 mg/kg bodyweight/day respectively when administered once daily orally to Sprague Dawley rats for 7 consecutive days under the tested dose levels and experimental conditions employed.

The subject of series [1] is Coxsackie B3 (Nancy strain) virus. The series can be described thus: CVB3-induced pancreatitis mouse model. The format is in vivo. As to conditions: Coxsackie B3 Nancy strain infected SJL mice, 4 different dosages, treated 2 h pre-infection then once daily for 3 days. The method, then: Compounds of the present invention were studied in a CVB3 induced pancreatitis mouse model as described by van der Schaar et al (Antimicrob. Agents Chemother. 2013, 57(10):4971-4981). Animals (SJL mice) were infected intraperitoneally with 0.3 ml Coxsackie B3 (Nancy strain) virus (log TCID50=8). The animals were treated 2 h pre-infection and then once daily for 3 days. The animals were euthanized and organs were collected for pancreatitis evaluation by histopathology and for virus titer determination by immunohistochemistry and polymerase chain reaction (PCR). Pancreata were obtained from infected and uninfected control animals and from animals treated with 4 different dosages of Example 8, and HE-stained slides of the organs were prepared, studied and scored for signs of inflammation and necrosis on a scale from 0 to 3, as follows: 0=no abnormalities. […] The virus titer in the organs was determined by immunohistochemistry using the Dako 5-D8/1 monoclonal mouse antibody and the titer was scored on a scale from 0 to 4, where 0 indicates no infection and 4 corresponds to the highest determined virus titer (FIG. 4). The Ct values from PCR detection of virus titers were determined (FIG. 5). […] Corresponding studies were also performed on Examples 2, 8 and 20 at a dosage of 50 mg/kg/day and pancreatitis scoring and Ct values were determined (FIG. 6).

Another series deals with EV71. In words: Time of addition assay. The format is cell-based, Enterovirus 71. The conditions noted are these: Enterovirus A, 100 nM, EV71 at high titer. The method, then:
The titer of the virus was determined by the standard method of tissue culture infective dose (TCID50) on cells. Briefly, cells were infected with 50 μl of virus suspension, and diluted 10-fold in media. The plates were incubated in 37° C. with 5% CO2 for 3-7 days and cells were inspected daily for CPE. After determining CPE, plates were stained with Gram's Crystal Violet solution and optical density was read at 540 nm. […] Substances at a final concentration of 0.1 nM-1 μM and the virus were added to the cells and incubated for 3-7 days depending on the virus and cell line used. As controls, uninfected cells and cells infected with virus (no substance) were included on each plate. The cells were stained with crystal violet after determining the CPE on infected controls and the optical density was read at 540 nm. The inhibition capacity was calculated as a % by comparison with non-infected and infected controls. Time of addition assay The assay was performed like the “in vitro assay in mammalian cell culture” described above with the exception that substance was added one hour pre inoculation (−1 h), at inoculation (0 h), and 2 hours (+2 h), 6 hours (+6 h) or 24 hours (+24 h) past inoculation. The virus EV71 was used at high titer for the test.

Turning to `Cc1cc(NCc2ccncc2)n2nc(C)c(-c3ccc4c(c3)c(C)nn4C)c2n1` [Example 8, 3-(1,3-dimethyl-1H-indazol-5-yl)-2,5-dimethyl-N-(pyridin-4-ylmethyl)pyrazolo[1,5-a]pyrimidin-7-amine], the NOAEL (in general, the highest dose or exposure tested at which no adverse effect was seen) at 7 days in the series “in vivo” amounted to 60 mg/kg/day. Also, the “Dose-response of pancreatitis scoring and virus titer” value in series [1] is reported as “very good dose-response”.

With `Cc1nc(NCc2ccncc2)n2nc(C)c(-c3ccc4c(c3)c(C)nn4C)c2n1` [Example 20, 8-(1,3-dimethyl-1H-indazol-5-yl)-2,7-dimethyl-N-(pyridin-4-ylmethyl)pyrazolo[1,5-a][1,3,5]triazin-4-amine], the inhibition (commonly how much of the control response was suppressed) at 0.1 µM came to 94% in the series with EV71 (0 h, substance added at inoculation, read-out: Inhibition of cytopathogenic effect, 0 h); 85% in the series on EV71 (1 h, substance added one hour pre inoculation, read-out: Inhibition of cytopathogenic effect, −1 h); 95% with EV71 (substance added 2 hours past inoculation, read-out: Inhibition of cytopathogenic effect, +2 h); 99% with EV71 (substance added 6 hours past inoculation, read-out: Inhibition of cytopathogenic effect, +6 h); 2% in the series on EV71 (substance added 24 hours past inoculation, read-out: Inhibition of cytopathogenic effect, +24 h).
